Columns and labels:
[1] = Liquid; for mass density: 298.15 K, 101.33 kPa
[2] = refractive index (Na D-line) (dimensionless); settings: 298.15 K, 101.33 kPa, Liquid

CCC(O)CC [3-pentanol]
Settings | mass density [kg/m3] | refractive index | vapor or sublimation pressure [kPa]
[1], 293.8 K | – | – | 0.84
[1], 300.8 K | – | – | 1.33
[1], 308 K | – | – | 2.11
[1], 315.4 K | – | – | 3.35
[1], 323 K | – | – | 5.31
[1], 331.1 K | – | – | 8.41
[1], 339.8 K | – | – | 13.33
[1], 349.3 K | – | – | 21.13
[1], 359.4 K | – | – | 33.49
[1], 370.5 K | – | – | 53.08
[1], 382.9 K | – | – | 84.13
[1], 388.38 K | – | – | 101.32
[1], 388.7 K | – | – | 101.32
[1], vibrating tube | 815.5 | – | –
[2], Abbe refractometer | – | 1.4087 | –

CCCC(C)=O [pentan-2-one]
Settings | mass density [kg/m3] | refractive index | vapor or sublimation pressure [kPa]
[1], 329.8 K | – | – | 20.44
[1], 336.3 K | – | – | 26.55
[1], 342.1 K | – | – | 33.04
[1], 347.2 K | – | – | 39.99
[1], 351.5 K | – | – | 46.57
[1], 355.5 K | – | – | 53.47
[1], 358.9 K | – | – | 59.95
[1], 362 K | – | – | 66.61
[1], 365 K | – | – | 73.28
[1], 367.7 K | – | – | 79.91
[1], 370.3 K | – | – | 86.76
[1], 372.6 K | – | – | 93.11
[1], 375 K | – | – | 100.06
[1], 375.09 K | – | – | 101.32
[1], 377.2 K | – | – | 106.83
[1], 379.3 K | – | – | 113.61
[1], 381.2 K | – | – | 120.11
[1], 383 K | – | – | 126.54
[1], 384.8 K | – | – | 133.92
[1], vibrating tube | 801.47 | – | –
[2], Abbe refractometer | – | 1.3881 | –

CCC(=O)CC [pentan-3-one]
Settings | mass density [kg/m3] | refractive index | vapor or sublimation pressure [kPa]
[1], 290 K | – | – | 3.42
[1], 309.9 K | – | – | 9.21
[1], 320 K | – | – | 14.22
[1], 330.6 K | – | – | 22.33
[1], 341.4 K | – | – | 33.64
[1], 350.4 K | – | – | 46.5
[1], 361.3 K | – | – | 66.6
[1], 367.5 K | – | – | 82.09
[1], 371 K | – | – | 90.18
[1], 371.5 K | – | – | 91.82
[1], 374.75 K | – | – | 101.32
[1], 375.2 K | – | – | 102.52
[1], Vibrating tube method | 809.43 | – | –
[2], Standard Abbe refractometry | – | 1.39 | –

Reference: the NIST ThermoML archive (doi:10.1021/je025651k)
